Entries after “also recorded” stand apart in the source; their conditions may differ. Where a name gives a salt, the structure may show the parent alone.
These compounds were tested on E. coli MG1655.
Assay type: cell-based

Q: For `N[C@@H](CS)C(=O)O` [L-cysteine], which “suitability as nitrogen source (growth, purple color)” value (from here on “suitability as nitrogen source”) is on record?
A: not suitable

Q: With `CSCC[C@H](N)C(=O)O` [L-methionine] as the compound, how does the “suitability as nitrogen source” value read?
A: not suitable

Q: With `NCCC[C@H](N)C(=O)O` [L-ornithine] as the compound, how does the “suitability as nitrogen source” value read?
A: not suitable

Q: Which “suitability as nitrogen source” value does the source give for `N[C@@H](CCC(=O)N[C@@H](CS)C(=O)NCC(=O)O)C(=O)O` [glutathione (reduced form)] here?
A: not suitable

Q: With `NCCCC(=O)O` [γ-aminobutyric acid] as the compound, how does the “suitability as nitrogen source” value read?
A: weak positive; also recorded: not suitable

Q: For `Cc1cn([C@H]2C[C@H](O)[C@@H](CO)O2)c(=O)[nH]c1=O` [Thymidine], which “suitability as nitrogen source” value is on record?
A: not suitable

Each compound was assayed on E. coli 287 (ATCC #11775).
Assay type: cell-based

Q: How did the “carbon source utilization result” value turn out when `O=C[C@@H](O)[C@@H](O)[C@H](O)[C@H](O)CO` [D-mannose] was run?
A: positive

Q: With `O=C[C@H](O)[C@@H](O)[C@H](O)[C@H](O)COP(=O)(O)O` [Glucose-6-phosphate] as the compound, how does the “carbon source utilization result” value read?
A: positive

Q: Which “carbon source utilization result” value does the source give for `Cc1cn([C@H]2C[C@H](O)[C@@H](CO)O2)c(=O)[nH]c1=O` [Thymidine] here?
A: positive

Tested on: E. coli MG1655
Assay type: cell-based
Remark: another data set of the same source

Q: Which “suitability as sulfur source (growth, purple color)” value (“suitability as sulfur source” for short) does the source give for `CCCCCCCCCCCCS(=O)(=O)O` [1-dodecane-sulfonic acid] here?
A: not suitable

Q: `O=C(O)CS` [thioglycolic acid] was tested. Which “suitability as sulfur source” value did it give?
A: not suitable

Q: `CN(CC(=O)O)C(=N)NP(=O)(O)O` [phosphocreatine] was tested. Which “suitability as phosphorus source (growth, purple color)” value (shortened to “suitability as phosphorus source”) did it give?
A: positive

Q: `O=C(O)[C@H](O)[C@@H](O)[C@H](O)[C@H](O)COP(=O)(O)O` [6-phosphogluconic acid] was tested. Which “suitability as phosphorus source” value did it give?
A: positive

Q: With `NCCS(=O)(=O)O` [taurine] as the compound, how does the “suitability as sulfur source” value read?
A: positive

Q: `N[C@H](COP(=O)(O)O)C(=O)O` [O-phospho-D-serine] was tested. Which “suitability as phosphorus source” value did it give?
A: positive

Q: With `O=C(O)CP(=O)(O)O` [phosphonoacetic acid] as the compound, how does the “suitability as phosphorus source” value read?
A: not suitable

Q: `N[C@@H](CSCSC[C@H](N)C(=O)O)C(=O)O` [L-djenkolic acid] was tested. Which “suitability as sulfur source” value did it give?
A: positive

Q: Which “suitability as sulfur source” value does the source give for `N[C@@H](CS)C(=O)O` [L-cysteine] here?
A: positive

Q: For `O=c1ccn([C@@H]2O[C@H](CO)[C@@H](O)[C@H]2OP(=O)(O)O)c(=O)[nH]1` [uridine 2′-monophosphate], which “suitability as phosphorus source” value is on record?
A: positive

Q: How did the “suitability as phosphorus source” value turn out when `C=C(OP(=O)(O)O)C(=O)O` [phosphoenol pyruvate] was run?
A: positive

Q: Which “suitability as sulfur source” value does the source give for `O=S1(=O)CCCC1` [tetramethylene sulfone] here?
A: not suitable

Q: For `Nc1nc2c(ncn2[C@@H]2O[C@H](CO)[C@@H](OP(=O)(O)O)[C@H]2O)c(=O)[nH]1` [guanosine 3′-monophosphate], which “suitability as phosphorus source” value is on record?
A: positive

Q: How did the “suitability as phosphorus source” value turn out when `O=P(O)(O)OP(=O)(O)O` [pyrophosphate] was run?
A: not suitable

Q: For `O=S(=O)(O)SSS(=O)(=O)O` [tetrathionate], which “suitability as sulfur source” value is on record?
A: positive

Q: `OP(O)(O)=S` [thiophosphate] was tested. Which “suitability as phosphorus source” value did it give?
A: positive

Q: What about the “suitability as sulfur source” value of the same compound?
A: positive

Q: `CC(=O)OC[C@H](N)C(=O)O` [O-acetyle-serine with sodium sulfate, O-acetyl-serine] was tested. Which “suitability as sulfur source” value did it give?
A: positive

Q: `CSCCC(NC(=O)CN)C(=O)O` (racemic) [glycyl-DL-methionine] was tested. Which “suitability as sulfur source” value did it give?
A: positive

Q: With `O=C(COP(=O)(O)O)[C@@H](O)[C@H](O)[C@H](O)CO` [fructose 1-phosphate] as the compound, how does the “suitability as phosphorus source” value read?
A: positive

Q: `CS(=O)(=O)CC[C@H](N)C(=O)O` [L-methionine sulfone] was tested. Which “suitability as sulfur source” value did it give?
A: not suitable

Q: `CSCC[C@H](N)C(=O)O` [L-methionine] was tested. Which “suitability as sulfur source” value did it give?
A: positive

Q: With `O=P(O)(O)CP(=O)(O)O` [methylene diphosphonic acid] as the compound, how does the “suitability as phosphorus source” value read?
A: not suitable

Q: Which “suitability as sulfur source” value does the source give for `N[C@@H](CCSC[C@H](N)C(=O)O)C(=O)O` [cystathionine] here?
A: positive

Q: How did the “suitability as phosphorus source” value turn out when `O=P(O)(O)O[C@H]1[C@H](OP(=O)(O)O)[C@@H](OP(=O)(O)O)[C@H](OP(=O)(O)O)[C@@H](OP(=O)(O)O)[C@H]1OP(=O)(O)O` [inositol hexaphosphate] was run?
A: not suitable

Q: How did the “suitability as sulfur source” value turn out when `C[C@H](CCC(=O)NCCS(=O)(=O)O)[C@H]1CC[C@H]2[C@@H]3[C@H](O)C[C@@H]4C[C@H](O)CC[C@]4(C)[C@H]3C[C@H](O)[C@]12C` [taurocholic acid] was run?
A: positive

Q: `O=C[C@@H](O)[C@@H](O)[C@H](O)[C@H](O)COP(=O)(O)O` [mannose 6-phosphate] was tested. Which “suitability as phosphorus source” value did it give?
A: positive

Q: Which “suitability as sulfur source” value does the source give for `CSC[C@H](N)C(=O)O` [S-methyl-L-cysteine] here?
A: weak positive

Q: `O=P(O)(O)OP(=O)(O)OP(=O)(O)O` [tripolyphosphate] was tested. Which “suitability as phosphorus source” value did it give?
A: not suitable

Q: `O=P(O)(O)OC(CO)CO` [β-glycerophosphate] was tested. Which “suitability as phosphorus source” value did it give?
A: positive

Q: For `O=S(O)(O)=S` [thiosulfate], which “suitability as sulfur source” value is on record?
A: positive

Q: With `N[C@@H](CS(=O)O)C(=O)O` [L-cysteine sulphinic acid] as the compound, how does the “suitability as sulfur source” value read?
A: positive

Q: With `NCCS(=O)O` [hypotaurine] as the compound, how does the “suitability as sulfur source” value read?
A: positive

Q: With `CCSCCC(N)C(=O)O` (racemic) [DL-ethionine] as the compound, how does the “suitability as sulfur source” value read?
A: not suitable

Q: `N[C@@H](COP(=O)(O)O)C(=O)O` [O-phospho-L-serine] was tested. Which “suitability as phosphorus source” value did it give?
A: positive

Q: `C[S+]([O-])CC[C@H](N)C(=O)O` (stereo partly drawn) [L-methionine sulfoxide] was tested. Which “suitability as sulfur source” value did it give?
A: positive

Q: How did the “suitability as sulfur source” value turn out when `N[C@@H](CSC[C@H](N)C(=O)O)C(=O)O` [lanthionine] was run?
A: positive

Q: How did the “suitability as phosphorus source” value turn out when `Nc1nc2c(ncn2[C@@H]2O[C@H](CO)[C@H]3OP(=O)(O)O[C@H]32)c(=O)[nH]1` [guanosine 2′:3′-cyclic monophosphate] was run?
A: positive

Q: `N[C@@H](CCC(=O)N[C@@H](CS)C(=O)NCC(=O)O)C(=O)O` [glutathione (reduced form)] was tested. Which “suitability as sulfur source” value did it give?
A: positive

Q: `Nc1nc2c(ncn2[C@@H]2O[C@@H]3COP(=O)(O)O[C@H]3[C@H]2O)c(=O)[nH]1` [guanosine 3′:5′-cyclic monophosphate] was tested. Which “suitability as phosphorus source” value did it give?
A: not suitable

Q: How did the “suitability as phosphorus source” value turn out when `N[C@H]1C(O)O[C@H](COP(=O)(O)O)[C@@H](O)[C@@H]1O` (some centres unmarked) [glucosamine 6-phosphate] was run?
A: positive

Q: How did the “suitability as sulfur source” value turn out when `O=S(=O)(O)CCO` [isethionate] was run?
A: positive

Q: How did the “suitability as sulfur source” value turn out when `N[C@@H](CS)C(=O)NCC(=O)O` [cys-gly] was run?
A: positive

Q: Which “suitability as sulfur source” value does the source give for `CC(=O)N[C@@H](CS)C(=O)O` [N-acetyl cysteine] here?
A: not suitable

Q: With `Cc1cn([C@H]2C[C@H](OP(=O)(O)O)[C@@H](CO)O2)c(=O)[nH]c1=O` [thymidine 3′-monophosphate] as the compound, how does the “suitability as phosphorus source” value read?
A: positive

Q: With `N[C@H]1C(OP(=O)(O)O)O[C@H](CO)[C@@H](O)[C@@H]1O` (some centres unmarked) [glucosamine 1-phosphate] as the compound, how does the “suitability as phosphorus source” value read?
A: positive

Q: How did the “suitability as phosphorus source” value turn out when `O=C[C@@H](O)[C@H](O)[C@H](O)COP(=O)(O)O` [arabinose 5-phosphate] was run?
A: positive

Q: Which “suitability as phosphorus source” value does the source give for `Cc1cn([C@H]2C[C@H](O)[C@@H](COP(=O)(O)O)O2)c(=O)[nH]c1=O` [thymidine 5′-monophosphate] here?
A: positive

Q: `N[C@H](Cc1ccc(OP(=O)(O)O)cc1)C(=O)O` [O-phospho-D-tyrosine] was tested. Which “suitability as phosphorus source” value did it give?
A: positive

Q: For `O=C(O)C(CO)OP(=O)(O)O` (centres unmarked) [2-phosphoglyceric acid], which “suitability as phosphorus source” value is on record?
A: positive

Q: `N[C@@H](Cc1ccc(OP(=O)(O)O)cc1)C(=O)O` [O-phospho-L-tyrosine] was tested. Which “suitability as phosphorus source” value did it give?
A: positive

Q: For `O=C(CO)[C@@H](O)[C@H](O)[C@H](O)COP(=O)(O)O` [Fructose-6-phosphate], which “suitability as phosphorus source” value is on record?
A: positive

Q: Which “suitability as phosphorus source” value does the source give for `O=C(O)COP(=O)(O)O` [phosphoglycolic acid] here?
A: positive

Q: `CSCCC(NC(C)=O)C(=O)O` (racemic) [N-acetyl-DL-methionine] was tested. Which “suitability as sulfur source” value did it give?
A: positive

Q: `N[C@@H](CS(=O)(=O)O)C(=O)O` [L-cysteic acid] was tested. Which “suitability as sulfur source” value did it give?
A: positive

Q: For `O=C[C@H](O)[C@@H](O)[C@H](O)[C@H](O)COP(=O)(O)O` [Glucose-6-phosphate], which “suitability as phosphorus source” value is on record?
A: positive

Q: phosphatidyl glycerol was tested. Which “suitability as phosphorus source” value did it give?
A: not suitable

Q: For `C[C@@H](OP(=O)(O)O)[C@H](N)C(=O)O` [O-phospho-L-threonine], which “suitability as phosphorus source” value is on record?
A: positive

Q: How did the “suitability as phosphorus source” value turn out when `O=P(O)(O)OC1O[C@H](CO)[C@@H](O)[C@H](O)[C@@H]1O` (some centres unmarked) [mannose 1-phosphate] was run?
A: positive

What follows are compounds tested on T. harzianum DAOM 190830.
Assay type: cell-based, Trichoderma harzianum

Q: With `O=C[C@@H](O)[C@@H](O)[C@H](O)[C@H](O)CO` [D-mannose] as the compound, how does the “carbon source utilization result” value read?
A: positive

Q: With `O=C(O)CCC(=O)C(=O)O` [α-ketoglutaric acid] as the compound, how does the “carbon source utilization result” value read?
A: positive

Q: For `NCCC[C@H](N)C(=O)O` [L-ornithine], which “carbon source utilization result” value is on record?
A: positive

Q: With `NC(=O)CCC(=O)O` [succinamic acid] as the compound, how does the “carbon source utilization result” value read?
A: positive

Q: For `NCCCC(=O)O` [γ-aminobutyric acid], which “carbon source utilization result” value is on record?
A: positive

Q: glycogen was tested. Which “carbon source utilization result” value did it give?
A: positive
